{"source": "patent US20050202465A1", "about": "“Thymidylate synthase gene and metastasis” (The Johns Hopkins University, priority 2004, published 2005)", "test_system": "colorectal cancer metastases", "assay": "Overall survival after surgical removal of metastases in 5-FU treated colorectal cancer patients, by TYMS amplification status", "type": "in vivo, human", "settings": "for Median survival after metastasis removal / Survival range after metastasis removal: previous treatment 5-FU", "description": "Tissue samples, including normal tissues, primary tumors, and metastases were obtained from colorectal cancer patients undergoing surgery at the Johns Hopkins Hospital between 1990 and 2002. A diagnosis of colorectal cancer was established by histological examination of surgical specimens and clinical information was retrospectively retrieved from patient records. Acquisition of tissue specimens and examination of clinical records was approved by an institutional review board and was performed in accordance with HIPAA regulations. Metastatic samples were obtained from complete resections, debulking, or biopsies of metastatic lesions.\nOverall survival was calculated from the date of the surgical excision of the metastasis to the date of death or last follow-up and computed by Kaplan-Meier method. Data were censored when patients were lost to follow-up.\nA corollary of this idea is that such patients would fare worse than those without TYMS amplification, as post-surgical therapy of patients with metastatic cancers often involves retreatment with 5-FU plus other agents (see Introduction). To evaluate this possibility, we compared the survival of patients with metastatic lesions that had previously been treated with 5-FU, segregated according to TYMS amplification status. Although the average age, stage at initial diagnosis, and metastasis size and location were similar between patients with and without increased TYMS gene copies, the median overall survival following surgical removal of metastases among patients with TYMS gene amplification was 329 days, as compared with 1021 days for patients without TYMS amplification (Table 2, p<0.01, t-Test). […] These differences were also significant in Kaplan-Meier analyses (FIG. 4).", "key": {"[1]": {"settings": "Group A (n = 6), TYMS amplified in metastasis"}, "[2]": {"settings": "Group B (n = 21), TYMS not amplified in metastasis"}}}
{"molecule": "O=c1[nH]cc(F)c(=O)[nH]1", "note": "[5-FU, 5-fluorouracil]", "values": [{"measurement": "Relative risk of death, patients with TYMS amplification vs without", "setting": "5-FU treated patients, proportional hazard model, 95% confidence interval 1.06-11.4, p<0.05", "value": 3.5, "unit": "fold"}, {"measurement": "Median survival after metastasis removal", "setting": "[1]", "value": 329, "unit": "days"}, {"measurement": "Survival range after metastasis removal", "setting": "[1]", "value": "(109-708 days)"}, {"measurement": "Median survival after metastasis removal", "setting": "[2]", "value": 1021, "unit": "days"}, {"measurement": "Survival range after metastasis removal", "setting": "[2]", "value": "(255-3790 days)"}]}
